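Results reflect a 48-hour exposure of cells in 96-well plates to compound at five concentrations. Definition used: TGI = concentration required for complete inhibition of growth.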
Legend:
Assay in all cases: NCI anticancer screen, dose series, 48 h
786-0 renal = test system: 786-0 renal
A498 renal = test system: A498 renal
A549 NSCLC = test system: A549 NSCLC
ACHN renal = test system: ACHN renal
CAKI-1 renal = test system: CAKI-1 renal
CCRF-CEM leukemia = test system: CCRF-CEM leukemia
COLO 205 colon = test system: COLO 205 colon
DLD-1 colon = test system: DLD-1 colon
DMS 114 small cell lung = test system: DMS 114 small cell lung
DMS 273 small cell lung = test system: DMS 273 small cell lung
HCC-2998 colon = test system: HCC-2998 colon
HCT-116 colon = test system: HCT-116 colon
HCT-15 colon = test system: HCT-15 colon
HL-60(TB) leukemia = test system: HL-60(TB) leukemia
HOP-18 NSCLC = test system: HOP-18 NSCLC
HOP-62 NSCLC = test system: HOP-62 NSCLC
HOP-92 NSCLC = test system: HOP-92 NSCLC
HT29 colon = test system: HT29 colon
IGROV1 ovarian = test system: IGROV1 ovarian
K-562 leukemia = test system: K-562 leukemia
KM12 colon = test system: KM12 colon
KM20L2 colon = test system: KM20L2 colon
LOX IMVI melanoma = test system: LOX IMVI melanoma
LXFL 529 NSCLC = test system: LXFL 529 NSCLC
M14 melanoma = test system: M14 melanoma
M19-MEL melanoma = test system: M19-MEL melanoma
MALME-3M melanoma = test system: MALME-3M melanoma
MOLT-4 leukemia = test system: MOLT-4 leukemia
NCI-H23 lung = test system: NCI-H23 lung
NCI-H460 lung = test system: NCI-H460 lung
NCI-H522 lung = test system: NCI-H522 lung
OVCAR-3 ovarian = test system: OVCAR-3 ovarian
OVCAR-4 ovarian = test system: OVCAR-4 ovarian
OVCAR-5 ovarian = test system: OVCAR-5 ovarian
OVCAR-8 ovarian = test system: OVCAR-8 ovarian
RPMI-8226 leukemia = test system: RPMI-8226 leukemia
RXF 393 renal = test system: RXF 393 renal
RXF-631 renal = test system: RXF-631 renal
SF-268 CNS = test system: SF-268 CNS
SF-295 CNS = test system: SF-295 CNS
SF-539 CNS = test system: SF-539 CNS
SK-MEL-2 melanoma = test system: SK-MEL-2 melanoma
SK-MEL-28 melanoma = test system: SK-MEL-28 melanoma
SK-MEL-5 melanoma = test system: SK-MEL-5 melanoma
SK-OV-3 ovarian = test system: SK-OV-3 ovarian
SN12C renal = test system: SN12C renal
SNB-19 CNS = test system: SNB-19 CNS
SNB-75 CNS = test system: SNB-75 CNS
SNB-78 CNS = test system: SNB-78 CNS
SW-620 colon = test system: SW-620 colon
TK-10 renal = test system: TK-10 renal
U251 CNS = test system: U251 CNS
UACC-257 melanoma = test system: UACC-257 melanoma
UACC-62 melanoma = test system: UACC-62 melanoma
UO-31 renal = test system: UO-31 renal

O=S(=O)(SCCCCSS(=O)(=O)c1ccc(Cl)cc1)c1ccc(Cl)cc1
TGI (786-0 renal): 21.4 µM | TGI (A498 renal): 32.9 µM | TGI (A549 NSCLC): 37.2 µM | TGI (ACHN renal): 31 µM | TGI (CAKI-1 renal): 27.8 µM | TGI (CCRF-CEM leukemia): 4.5 µM | TGI (COLO 205 colon): 28.2 µM | TGI (DLD-1 colon): 27.5 µM | TGI (DMS 114 small cell lung): 20.7 µM | TGI (DMS 273 small cell lung): 23.3 µM | TGI (HCC-2998 colon): 34.1 µM | TGI (HCT-116 colon): 24.3 µM | TGI (HCT-15 colon): 27.4 µM | TGI (HL-60(TB) leukemia): 8.85 µM | TGI (HOP-18 NSCLC): 32.9 µM | TGI (HOP-62 NSCLC): 36.6 µM | TGI (HOP-92 NSCLC): 21 µM | TGI (HT29 colon): 32.1 µM | TGI (IGROV1 ovarian): 19.4 µM | TGI (K-562 leukemia): 48.8 µM | TGI (KM12 colon): 22.8 µM | TGI (KM20L2 colon): 33.8 µM | TGI (LOX IMVI melanoma): 11.3 µM | TGI (LXFL 529 NSCLC): 24.7 µM | TGI (M14 melanoma): 27.7 µM | TGI (M19-MEL melanoma): 30.8 µM | TGI (MALME-3M melanoma): 32.4 µM | TGI (MOLT-4 leukemia): 10.1 µM | TGI (NCI-H23 lung): 22.9 µM | TGI (NCI-H460 lung): 29.5 µM | TGI (NCI-H522 lung): 17 µM | TGI (OVCAR-3 ovarian): 28 µM | TGI (OVCAR-4 ovarian): 33.5 µM | TGI (OVCAR-5 ovarian): 30.4 µM | TGI (OVCAR-8 ovarian): 25.5 µM | TGI (RPMI-8226 leukemia): 28.5 µM | TGI (RXF 393 renal): 34.2 µM | TGI (RXF-631 renal): 21.5 µM | TGI (SF-268 CNS): 29.1 µM | TGI (SF-295 CNS): 15.2 µM | TGI (SF-539 CNS): 25 µM | TGI (SK-MEL-2 melanoma): 33.2 µM | TGI (SK-MEL-28 melanoma): 34.3 µM | TGI (SK-MEL-5 melanoma): 30.5 µM | TGI (SK-OV-3 ovarian): 30.1 µM | TGI (SN12C renal): 22.5 µM | TGI (SNB-19 CNS): 28 µM | TGI (SNB-75 CNS): 33.3 µM | TGI (SNB-78 CNS): 56.4 µM | TGI (SW-620 colon): 23 µM | TGI (TK-10 renal): 47.7 µM | TGI (U251 CNS): 21 µM | TGI (UACC-257 melanoma): 37.2 µM | TGI (UACC-62 melanoma): 28.9 µM | TGI (UO-31 renal): 21.1 µM

Reference: PubChem BioAssay (NCI)
